Where two headings read alike, the source gives them in different places.
Columns and labels:
Assay type in all cases: biochemical
HDAC1 = HDAC1 (Homo sapiens, UniProt Q13547); assay: HDAC1 isozyme inhibition; conditions: for SI HDAC1/6: selectivity index
HDAC2 = HDAC2 (Homo sapiens, UniProt Q92769); assay: HDAC2 isozyme inhibition; conditions: for SI HDAC2/6: selectivity index
HDAC3 = HDAC3 (Homo sapiens, UniProt O15379); assay: HDAC3 isozyme inhibition; conditions: for SI HDAC3/6: selectivity index
HDAC10 = target: T1, HDAC10 (Homo sapiens, UniProt Q969S8); assay: HDAC10 isozyme inhibition; conditions: for SI HDAC10/6: selectivity index
T1 sequence (Q969S8 1-669): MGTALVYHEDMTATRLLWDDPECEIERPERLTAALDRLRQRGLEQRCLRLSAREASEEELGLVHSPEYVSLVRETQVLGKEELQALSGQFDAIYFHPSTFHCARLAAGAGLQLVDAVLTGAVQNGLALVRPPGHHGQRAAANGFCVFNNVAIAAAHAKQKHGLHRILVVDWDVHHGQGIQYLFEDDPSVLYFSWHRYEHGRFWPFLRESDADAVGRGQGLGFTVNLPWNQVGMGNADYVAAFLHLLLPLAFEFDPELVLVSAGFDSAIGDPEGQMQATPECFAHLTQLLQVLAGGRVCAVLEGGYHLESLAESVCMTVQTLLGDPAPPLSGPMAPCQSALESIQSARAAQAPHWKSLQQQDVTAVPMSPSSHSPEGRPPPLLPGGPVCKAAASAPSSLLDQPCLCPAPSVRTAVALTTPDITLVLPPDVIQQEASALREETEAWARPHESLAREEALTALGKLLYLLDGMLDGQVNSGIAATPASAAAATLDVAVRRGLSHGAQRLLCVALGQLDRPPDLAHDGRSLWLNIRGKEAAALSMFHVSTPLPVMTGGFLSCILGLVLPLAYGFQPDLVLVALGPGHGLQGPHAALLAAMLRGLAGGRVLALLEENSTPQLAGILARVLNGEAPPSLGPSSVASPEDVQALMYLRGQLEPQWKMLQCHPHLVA

HDAC6 = target: T2, HDAC6 (Homo sapiens, UniProt Q9UBN7); assay: HDAC6 isozyme inhibition; conditions: for selectivity over HDAC1 and HDAC3: HDAC6 versus HDAC1 and HDAC3; for selectivity over HDAC2 and HDAC10: HDAC6 versus HDAC2 and HDAC10
T2 sequence (Q9UBN7 1-1215): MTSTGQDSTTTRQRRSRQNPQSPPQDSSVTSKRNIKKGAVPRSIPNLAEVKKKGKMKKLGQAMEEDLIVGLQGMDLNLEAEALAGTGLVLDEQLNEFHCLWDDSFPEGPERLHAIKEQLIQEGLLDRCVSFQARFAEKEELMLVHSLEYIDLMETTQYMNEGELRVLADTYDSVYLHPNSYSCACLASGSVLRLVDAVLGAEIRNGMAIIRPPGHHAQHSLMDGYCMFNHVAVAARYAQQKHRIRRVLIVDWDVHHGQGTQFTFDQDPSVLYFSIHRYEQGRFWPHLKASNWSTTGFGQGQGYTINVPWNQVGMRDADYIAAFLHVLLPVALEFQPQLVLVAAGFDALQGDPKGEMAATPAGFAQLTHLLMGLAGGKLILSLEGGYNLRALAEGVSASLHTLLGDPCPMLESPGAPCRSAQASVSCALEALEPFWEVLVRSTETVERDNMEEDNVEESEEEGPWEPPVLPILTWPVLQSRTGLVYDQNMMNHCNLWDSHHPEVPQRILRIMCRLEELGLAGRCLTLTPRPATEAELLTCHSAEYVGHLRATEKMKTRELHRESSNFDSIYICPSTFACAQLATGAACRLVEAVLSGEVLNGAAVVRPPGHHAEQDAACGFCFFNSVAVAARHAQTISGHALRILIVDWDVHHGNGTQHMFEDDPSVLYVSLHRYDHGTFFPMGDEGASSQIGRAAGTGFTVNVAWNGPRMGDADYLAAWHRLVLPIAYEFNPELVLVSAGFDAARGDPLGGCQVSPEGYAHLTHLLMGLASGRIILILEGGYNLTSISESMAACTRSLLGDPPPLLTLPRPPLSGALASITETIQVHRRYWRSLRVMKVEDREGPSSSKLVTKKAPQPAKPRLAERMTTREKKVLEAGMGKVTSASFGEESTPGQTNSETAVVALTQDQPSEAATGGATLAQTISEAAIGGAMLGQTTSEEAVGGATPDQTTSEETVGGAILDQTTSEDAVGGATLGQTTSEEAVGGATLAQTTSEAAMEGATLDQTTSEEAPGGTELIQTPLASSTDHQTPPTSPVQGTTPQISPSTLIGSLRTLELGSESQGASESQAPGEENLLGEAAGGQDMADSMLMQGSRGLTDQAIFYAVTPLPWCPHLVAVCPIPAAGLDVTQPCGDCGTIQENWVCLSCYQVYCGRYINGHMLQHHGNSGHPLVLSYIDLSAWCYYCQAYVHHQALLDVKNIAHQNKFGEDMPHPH

[1] = read-out: HDAC Isoform, IC50, Class I, 2, singlet, 10-dose IC50 mode, 3-fold serial dilution starting at 30 μM, >50000 = no inhibition at 50 μM
[2] = read-out: HDAC Isoform, IC50, Class II, 10, singlet, 10-dose IC50 mode, 3-fold serial dilution starting at 30 μM, >50000 = no inhibition at 50 μM
[3] = read-out: HDAC Isoform, IC50, Class I, 1, singlet, 10-dose IC50 mode, 3-fold serial dilution starting at 30 μM, >50000 = no inhibition at 50 μM
[4] = read-out: HDAC Isoform, IC50, Class I, 3, singlet, 10-dose IC50 mode, 3-fold serial dilution starting at 30 μM, >50000 = no inhibition at 50 μM
[5] = read-out: HDAC Isoform, IC50, Class II, 6, duplicate, 10-dose IC50 mode, 3-fold serial dilution starting at 30 μM, average ± standard deviation

HDAC2, sequence (Q92769 whole entry): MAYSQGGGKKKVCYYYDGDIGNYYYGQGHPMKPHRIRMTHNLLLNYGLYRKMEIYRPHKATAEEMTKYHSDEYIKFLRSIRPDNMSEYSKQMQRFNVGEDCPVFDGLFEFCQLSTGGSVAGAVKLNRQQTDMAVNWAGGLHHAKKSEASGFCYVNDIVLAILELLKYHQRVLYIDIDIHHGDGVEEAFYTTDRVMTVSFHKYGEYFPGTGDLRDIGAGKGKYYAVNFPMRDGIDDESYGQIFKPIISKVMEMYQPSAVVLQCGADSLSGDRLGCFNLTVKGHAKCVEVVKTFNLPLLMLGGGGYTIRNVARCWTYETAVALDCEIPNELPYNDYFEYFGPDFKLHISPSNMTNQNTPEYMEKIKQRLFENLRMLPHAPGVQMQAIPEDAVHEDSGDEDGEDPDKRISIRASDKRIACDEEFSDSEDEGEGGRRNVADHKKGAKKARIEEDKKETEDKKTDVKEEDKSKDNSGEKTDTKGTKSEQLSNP
HDAC1, sequence (Q13547 whole entry): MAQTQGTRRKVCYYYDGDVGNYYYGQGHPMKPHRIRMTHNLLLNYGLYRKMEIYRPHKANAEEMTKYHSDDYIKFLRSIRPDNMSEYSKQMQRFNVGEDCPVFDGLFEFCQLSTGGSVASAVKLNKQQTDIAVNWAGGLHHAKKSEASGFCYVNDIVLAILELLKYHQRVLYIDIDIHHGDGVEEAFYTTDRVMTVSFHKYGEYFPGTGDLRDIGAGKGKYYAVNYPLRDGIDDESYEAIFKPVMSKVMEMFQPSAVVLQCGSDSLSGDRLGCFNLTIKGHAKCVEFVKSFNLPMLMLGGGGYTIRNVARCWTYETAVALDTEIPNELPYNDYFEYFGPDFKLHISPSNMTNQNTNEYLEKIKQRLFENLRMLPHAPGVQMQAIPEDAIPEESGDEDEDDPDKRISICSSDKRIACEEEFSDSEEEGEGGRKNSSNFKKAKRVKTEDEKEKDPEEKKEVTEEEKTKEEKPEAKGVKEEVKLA
HDAC3, sequence (O15379 whole entry): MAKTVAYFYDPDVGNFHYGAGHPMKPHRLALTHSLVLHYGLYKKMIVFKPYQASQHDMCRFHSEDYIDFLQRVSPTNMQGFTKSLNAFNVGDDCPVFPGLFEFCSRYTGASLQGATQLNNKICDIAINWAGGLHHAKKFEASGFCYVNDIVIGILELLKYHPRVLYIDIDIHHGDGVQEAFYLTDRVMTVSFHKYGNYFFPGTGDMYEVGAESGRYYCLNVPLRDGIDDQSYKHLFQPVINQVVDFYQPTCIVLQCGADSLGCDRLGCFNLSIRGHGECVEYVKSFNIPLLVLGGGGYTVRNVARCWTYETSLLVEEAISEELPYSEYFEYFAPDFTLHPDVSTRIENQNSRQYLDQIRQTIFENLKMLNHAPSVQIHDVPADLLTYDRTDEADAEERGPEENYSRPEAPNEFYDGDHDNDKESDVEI
HDAC3, sequence (Q9Y618 395-489 partner limits assumed): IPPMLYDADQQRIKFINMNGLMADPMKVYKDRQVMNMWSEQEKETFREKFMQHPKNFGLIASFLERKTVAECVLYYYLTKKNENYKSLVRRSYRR

Structure (SMILES) | SI HDAC1/6 (HDAC1) | SI HDAC2/6 (HDAC2) | SI HDAC3/6 (HDAC3) | SI HDAC10/6 (HDAC10) | also measured
CC(C)(C)OC(=O)Nc1ccc(-c2csc(NC(=O)CCCc3cc(C(=O)NO)no3)n2)cc1 [Compound 3, N-[4-[2-[4-[3-(N-Hydroxycarbamoyl)isoxazol-5-yl]butyrylamino]thiazol-4-yl]phenyl]carbamic Acid tert-Butyl Ester] | 10 | 28 | 11 | – | –
CCOC(=O)Nc1cccc(-c2csc(NC(=O)CCc3cc(C(=O)NO)no3)n2)c1 [Compound 5, N-[3-[2-[3-[3-(N-Hydroxycarbamoyl)isoxazol-5-yl]propionylamino]thiazol-4-yl]phenyl]carbamic Acid Ethyl Ester] | 80 | 333 | 32 | 82 | –
CC(C)(C)OC(=O)Nc1cccc(-c2cc(C(=O)NCCc3cc(C(=O)NO)no3)no2)c1 [Compound 7] | – | – | – | – | IC50 (HDAC1; [3]): > 50 µM; IC50 (HDAC2; [1]): > 50 µM; IC50 (HDAC3; [4]): > 50 µM; IC50 (HDAC6; [5]): 0.0077 ± 0.0008 µM; IC50 (HDAC10; [2]): > 50 µM
Nc1cccc(-c2cc(C(=O)NCCc3cc(C(=O)NO)no3)no2)c1 [Compound 9, 5-(3-Aminophenyl)-N-[2-[3-(N-hydroxycarbamoyl)isoxazol-5-yl]ethyl]isoxazole-3-carboxamide] | 398 | 140 | 105 | 315 | –
CC(C)(C)C(=O)Nc1cccc(-c2cc(C(=O)NCCc3cc(C(=O)NO)no3)no2)c1 [Compound 10, 5-[2-[[5-[3-[(2,2-Dimethylpropionyl)amino]phenyl]isoxazole-3-carbonyl]amino]ethyl]isoxazole-3-carbohydroxyamic Acid] | – | – | – | 1910 | IC50 (HDAC1; [3]): > 50 µM; IC50 (HDAC2; [1]): > 50 µM; IC50 (HDAC3; [4]): > 50 µM; selectivity index (SI) (HDAC6; HDAC6 over the other isoforms tested): at least 1900; IC50 (HDAC6; [5]): 0.0212 ± 0.0009 µM; IC50 (HDAC10; [2]): 40.1 µM
O=C(NO)c1cc(CCNC(=O)c2cc(-c3cccc(NC(=O)C4CCCCC4)c3)on2)on1 [Compound 11, 5-[3-[(Cyclohexanecarbonyl)amino]phenyl]-N-[2-[3-(N-hydroxycarbamoyl)isoxazol-5-yl]ethyl]isoxazole-3-carboxamide] | – | – | – | – | IC50 (HDAC1): > 50 µM; IC50 (HDAC2): > 50 µM; IC50 (HDAC3): > 50 µM; IC50 (HDAC10): > 50 µM
O=C(Nc1cccc(-c2cc(C(=O)NCCc3cc(C(=O)NO)no3)no2)c1)c1ccccc1 [Compound 12, 5-[3-(Benzoylamino)phenyl]-N-[2-[3-(N-hydroxycarbamoyl)isoxazol-5-yl]ethyl]isoxazole-3-carboxamide] | 666 | 2360 | 1600 | 1050 | –
O=C(NO)c1cc(Cn2c3ccccc3c3ccccc32)on1 [Compound 17, 5-(Carbazol-9-ylmethyl)isoxazole-3-carbohydroxamic Acid] | 26 | – | 29 | – | IC50 (HDAC1): 38.7 µM; IC50 (HDAC2): > 50 µM; IC50 (HDAC3): 44 µM; IC50 (HDAC6): 1.51 ± 0.065 µM; IC50 (HDAC10): > 50 µM

Second part, led by results:

SI HDAC1/6 (HDAC1) | SI HDAC2/6 (HDAC2) | SI HDAC3/6 (HDAC3) | SI HDAC10/6 (HDAC10) | Structure (SMILES) | also measured
2817 | – | 3800 | – | CC(C)(C)OC(=O)Nc1ccc(-c2cc(C(=O)NCCc3cc(C(=O)NO)no3)no2)cc1 [Compound 6, N-[4-[3-[N-[2-[3-(N-Hydroxycarbamoyl)isoxazol-5-yl]ethyl]carbamoyl]isoxazol-5-yl]phenyl]carbamic Acid tert-Butyl Ester] | IC50 (HDAC2; [1]): > 50 µM; selectivity for HDAC6 over all other isoforms (HDAC6; Table S1 in the supporting information (not available)): highly selective; IC50 (HDAC10; [2]): > 50 µM
39 | 409 | 51 | 123 | CCOC(=O)Nc1ccc(-c2cc(C(=O)NCCc3cc(C(=O)NO)no3)no2)cc1 [Compound 8, N-[4-[3-[N-[2-[3-(N-Hydroxycarbamoyl)isoxazol-5-yl]ethyl]carbamoyl]isoxazol-5-yl]phenyl]carbamic Acid Ethyl Ester] | –
1320 | 5760 | 409 | 9580 | CC(C)(C)OC(=O)Nc1ccc(-c2cc(C(=O)NCc3ccc(C(=O)NO)cc3)no2)cc1 [Compound 13, N-[4-[3-[N-[4-(N-Hydroxycarbamoyl)benzyl]carbamoyl]isoxazol-5-yl]phenyl]carbamic Acid tert-Butyl Ester] | selectivity over HDAC1 and HDAC3 (HDAC6): at least 400 fold; selectivity over HDAC2 and HDAC10 (HDAC6): more than 3 orders of magnitude
694 | 2160 | 1230 | 4270 | CC(C)(C)OC(=O)Nc1cccc(-c2cc(C(=O)NCc3ccc(C(=O)NO)cc3)no2)c1 [Compound 14, N-[3-[3-[N-[4-(N-Hydroxycarbamoyl)benzyl]carbamoyl]isoxazol-5-yl]phenyl]carbamic Acid tert-Butyl Ester] | selectivity over HDAC1 and HDAC3 (HDAC6): at least 400 fold; selectivity over HDAC2 and HDAC10 (HDAC6): more than 3 orders of magnitude
65 | 461 | 40 | 38 | O=C(NO)c1ccc(CNC(=O)c2cc(-c3ccc(NC(=O)C4CCCCC4)cc3)on2)cc1 [Compound 15, 5-[4-[(Cyclohexanecarbonyl)amino]phenyl]-N-[4-(N-hydroxycarbamoyl)benzyl]isoxazole-3-carboxamide] | –
82 | 1650 | 257 | 73 | O=C(NO)c1ccc(CNC(=O)c2cc(-c3cccc(NC(=O)C4CCCCC4)c3)on2)cc1 [Compound 16, 5-[3-[(Cyclohexanecarbonyl)amino]phenyl]-N-[4-(N-hydroxycarbamoyl)benzyl]isoxazole-3-carboxamide] | –
825 | 2280 | 798 | 37000 | O=C(NO)c1ccc(CNC(=O)c2cc(Cn3c4ccccc4c4ccccc43)on2)cc1 [Compound 18, 5-(9H-Carbazol-9-ylmethyl)-N-[4-(hydroxycarbamoyl)benzyl]isoxazole-3-carboxamide] | –

Reference: article PMC4818591 (ChemMedChem, 2015)
